Assay results as given in US5773438A, “Synthetic matrix metalloprotease inhibitors and use thereof” (Glycomed Incorporated, priority 1994, dated 1998).

How the values were obtained:
[1] = target: T1, human skin fibroblast collagenase (Homo sapiens, UniProt P03956); assay: inhibition of collagenase, synthetic thiol ester substrate, Ki (Table 1); assay type: biochemical
T1 construct: endogenous in cells; host or cells: human skin fibroblasts
T1 sequence (P03956 100-469): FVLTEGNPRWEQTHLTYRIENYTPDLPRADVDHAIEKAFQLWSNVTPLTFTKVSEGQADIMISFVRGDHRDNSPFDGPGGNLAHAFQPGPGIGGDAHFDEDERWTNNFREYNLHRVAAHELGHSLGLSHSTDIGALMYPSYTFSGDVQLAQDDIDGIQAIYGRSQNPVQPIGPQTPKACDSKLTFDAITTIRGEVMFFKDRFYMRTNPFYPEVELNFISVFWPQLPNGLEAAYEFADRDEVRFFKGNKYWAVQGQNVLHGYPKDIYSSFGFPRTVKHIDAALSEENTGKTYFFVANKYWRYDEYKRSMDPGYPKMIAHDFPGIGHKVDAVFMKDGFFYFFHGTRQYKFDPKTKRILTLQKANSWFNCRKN
Protocol: Specifically, assay of inhibition activity can be conducted as follows. Inhibitors may be assayed against crude or purified human skin fibroblast collagenase, or purified human gingival fibroblast collagenase using the synthetic thiol ester substrate at pH 6.5 exactly as described by Kortylewicz & Galardy, J Med Chem (1990) 33:263-273, at a collagenase concentration of 1-2 nM. The candidate inhibitors are tested for their ability to inhibit crude collagenase and gelatinase from human skin fibroblasts, crude collagenase and gelatinase from purulent human neutrophils in this assay.

Stromelysin = Stromelysin (Homo sapiens, UniProt P08254); assay: inhibition of stromelysin (Table 2); assay type: biochemical; settings: read-out: Strom inhibitory activity
Protocol: (§1) Specifically, assay of inhibition activity can be conducted as follows. […] Assays for inhibition of human stromelysin are conducted as described by Teahan, J., et al., Biochemistry (1989) 20:8497-8501.
(§2) Assay of inhibition activity can be conducted using a fluorogenic substrate developed by Knight et al., FEBS Letters (1992) 296:263. This method uses a fluorometer to determine the rate of substrate hydrolysis in a 96 well plate format. Reaction rates are determined at several substrate concentrations, and multiple inhibitor levels. The data are analyzed by Lineweaver-Burk, Dixon and Henderson plot analyses (Enzyme Kinetics (1975) Irwin Segal (John Wiley & Sons, Inc., publishers), and as described by Henderson, Biochem J. (1972) 127:321). The substrate levels range from 10-30μM. […] Inhibitors may be assayed against purified 72 kD gelatinase, 92 kD gelatinase, neutrophil collagenase, stromelysin or other proteases as appropriate. The enzymes are activated at 37° C. with APMA (4-aminophenylmercuric acetate), and the assays are carried out at room temperature.

[2] = target: Recombinant neutrophil collagenase (Homo sapiens, UniProt P22894); assay: inhibition of recombinant neutrophil collagenase (Table 2); assay type: biochemical; settings: read-out: NC inhibitory activity
Protocol: as §1, §2

[3] = target: T2, Human gingival fibrblast collagenase (Homo sapiens, UniProt P03956); assay: inhibition of human gingival fibroblast collagenase (Table 2); assay type: biochemical; settings: read-out: HGFC inhibitory activity
T2 construct: endogenous in cells; host or cells: human gingival fibroblasts
T2 sequence (P03956 100-469): T1 sequence (P03956 100-469)
Protocol: as §1, §2

[4] = target: T3, Natural human 72kD gelatinase (Homo sapiens, UniProt P08253); assay: inhibition of 72kD gelatinase (Table 2); assay type: biochemical; settings: read-out: 72kD G inhibitory activity
T3 sequence (P08253 110-660): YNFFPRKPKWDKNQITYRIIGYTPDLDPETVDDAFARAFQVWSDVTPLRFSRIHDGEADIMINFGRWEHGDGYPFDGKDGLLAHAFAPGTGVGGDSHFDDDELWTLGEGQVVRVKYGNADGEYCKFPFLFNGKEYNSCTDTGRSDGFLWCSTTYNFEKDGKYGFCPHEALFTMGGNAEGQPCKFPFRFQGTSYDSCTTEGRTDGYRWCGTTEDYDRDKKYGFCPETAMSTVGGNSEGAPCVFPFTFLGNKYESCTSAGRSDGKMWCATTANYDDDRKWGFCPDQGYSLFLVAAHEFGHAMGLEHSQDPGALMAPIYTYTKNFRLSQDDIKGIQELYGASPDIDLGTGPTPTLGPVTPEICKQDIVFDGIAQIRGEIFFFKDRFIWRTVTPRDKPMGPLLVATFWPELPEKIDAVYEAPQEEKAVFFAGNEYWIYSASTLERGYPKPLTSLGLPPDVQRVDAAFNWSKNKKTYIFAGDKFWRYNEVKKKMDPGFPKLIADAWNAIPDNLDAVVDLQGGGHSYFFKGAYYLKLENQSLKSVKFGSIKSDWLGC
Protocol: as §1, §2

[5] = test system: protease activity of chronic wound fluid; assay: Azocoll assay of protease activity in chronic wound fluid; assay type: biochemical, human; settings: FIG. 7; for inhibition of protease activity of chronic wound fluid: highest concentration (800 μg/ml)
Protocol: Fluids were collected from 3 types of human wounds termed closed spontaneously healing wounds, open slowly healing wounds, and open chronic wounds. In the first category were fluids collected from the chest wall of women following mastectomy surgery. Fluids from non-infected wounds that were left open for valid surgical reasons were considered open slowly healing wounds. An occlusive dressing was placed over the wound bed, and fluids were collected after 2-6 hours of occlusion. Finally, fluids were also collected from chronic open wounds by covering the wounds with occlusive dressings. Wounds were considered to be chronic if they were not clinically infected and had been open and not healing for more than 4 weeks.
The various wound fluids were assayed for matrix metalloproteinase activity using the Azocoll assay essentially as described by Chavira, et al., Analytic Biochemistry (1984), 136:446.
The fluids were centrifuged, and the supernatants filtered using a 0.45μ sterile Gelman filter. The filtrates were stored frozen at -80° C. until tested for protease activity.
The effects of four inhibitors on the protease activity present in wound fluids were determined. The inhibitors were: compounds
Stock solutions of the four inhibitors were all prepared at a concentration of 800 μg/ml. Due to different solubility properties of the inhibitors, different techniques were utilized. […] S1209 was dissolved in 1% DMSO then dissolved in 10 mM citrate, pH 5.5, containing 0.05% methyl cellulose. 39A was dissolved in propylene glycol (to give a final concentration of 2.4%) then dissolved in 1 mM CaCl2, 50 mM Tris-Cl, pH 7.8. 21A was dissolved in propylene glycol (2.4%) methyl cellulose (0.05%) and 10 mM citrate, pH 8.
The protease substrate, Azocoll, was obtained from Sigma Chemical Corporation and it is a substrate for collagenase/gelatinase-like metalloproteinase enzymes and general proteases. Clostridium histolyticum collagenase (the crude form of the enzyme) was from Worthington Biochemicals. General chemicals including TRIS buffer, DMSO, and CaCl2 were from Sigma Chemical Corporation.
Briefly, 900 μl of the Azocoll substrate suspension in buffer ([…] in 50 mM TRIS, pH 7.8, 1 mM CaCl2) was added to 1.5 ml microcentrifuge tubes then 50 μl of inhibitor (or buffer) and 50 μl of chronic wound fluid (or collagenase standard) were added to the reaction tube. The reaction tubes were placed at 37° C. in a shaker that inverted the tubes 30 times per minute. After 24 hours of incubation, the reaction tubes were centrifuges at 10,000 X g and the absorbance of the supernatant solution was measured at 520 nm with a Milton-Roy spectrophotometer. Proteolysis of Azocoll substrate generates soluble colored fragments from the insoluble Azocoll substrate. Wound fluid samples were incubated alone or with the inhibitors. Controls included incubation of the Azocoll substrate with the assay buffer to measure spontaneous degradation of the substrate. A standard curve for digestion of the Azocoll substrate was generated by incubation of the Azocoll with crude bacterial collagenase. Protease levels were expressed as net μg of collagenase equivalent per ml of chronic wound fluid. In the figures, certain of the wound fluids are referred to by an individual name.
For these experiments, due to the different solubility properties of the inhibitors, different techniques were utilized. […] S1209 was dissolved in 1% DMSO then dissolved in 10 mM citrate, pH 5.5, containing 0.05% methyl cellulose. 39A was dissolved in propylene glycol (to give a final concentration of 2.4%) then dissolved in 1 mM CaCl2, […] Tris-Cl, pH 7.8. 21A was dissolved in propylene glycol (2.4%) methyl cellulose (0.05%) and 10 mM citrate, pH 8.

[6] = test system: PdiBu-Induced Epidermal Hyperplasia; assay: PdiBu-induced epidermal hyperplasia mouse model (psoriasis); assay type: in vivo, hairless mice; settings: topical
Protocol: The phorbol ester, PdiBu (20 nmol in 20 μl if acetone) was applied to both ears of hairless mice (h/h) (approximately 1 cm^2 each). The test compounds (in total volume of 20 μl) were then applied to the right ear immediately (15 to 30 min) following PdiBu. The left ear of each animal received an equivalent amount (20 μl) of vehicle. Test compounds (and vehicle) were reapplied at 6 and 18 hours following PdiBu. Treatment times were staggered to allow exact time intervals to be obtained. At 30 hours after PdiBu, animals were anesthetized, and ear thickness values were obtained using a microcaliper. The weights of punch biopsies (6mm) were then obtained. Histology was performed on selected samples taken at 30 hours.
Left ear in each animal served as vehicle-treated controls (PdiBu+ETOH). Thus, the controls for this series include: 1) Untreated controls; 2) PdiBu plus vehicle alone (included for each mouse tested); 3) PdiBu plus AHA; 4) PdiBu plus Lidex® as a positive control.

Recombinant neutrophil collagenase, sequence (P22894 101-467): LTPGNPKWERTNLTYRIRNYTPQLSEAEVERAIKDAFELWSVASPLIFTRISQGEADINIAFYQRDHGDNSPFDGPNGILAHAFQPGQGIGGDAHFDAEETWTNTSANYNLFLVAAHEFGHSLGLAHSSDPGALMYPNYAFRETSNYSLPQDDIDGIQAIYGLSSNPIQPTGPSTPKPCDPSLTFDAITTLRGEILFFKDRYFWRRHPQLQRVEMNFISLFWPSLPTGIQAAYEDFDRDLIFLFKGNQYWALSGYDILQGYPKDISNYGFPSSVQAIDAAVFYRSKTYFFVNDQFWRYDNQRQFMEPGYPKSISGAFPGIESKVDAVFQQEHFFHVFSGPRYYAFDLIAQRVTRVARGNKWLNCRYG
Stromelysin, sequence (P08254 100-477): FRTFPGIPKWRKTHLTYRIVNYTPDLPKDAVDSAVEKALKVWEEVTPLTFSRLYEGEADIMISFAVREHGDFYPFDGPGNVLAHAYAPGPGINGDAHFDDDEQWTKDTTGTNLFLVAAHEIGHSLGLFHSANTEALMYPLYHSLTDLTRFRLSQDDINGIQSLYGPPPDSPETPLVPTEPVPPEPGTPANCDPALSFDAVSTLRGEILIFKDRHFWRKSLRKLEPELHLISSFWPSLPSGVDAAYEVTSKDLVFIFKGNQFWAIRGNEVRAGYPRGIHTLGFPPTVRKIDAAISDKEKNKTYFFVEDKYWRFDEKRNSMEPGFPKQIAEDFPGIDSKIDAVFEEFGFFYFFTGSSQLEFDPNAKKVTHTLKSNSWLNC

| Structure (SMILES) | Ki [1] | Ki [3] | also measured |
| --- | --- | --- | --- |
| CNC(=O)[C@H](Cc1c[nH]c2ccccc12)NC(=O)[C@@H]1CCCC[C@@H]1C(=O)O (mixture of isomers) [Compound 35, N-[(+)cis-2-carboxy-cyclohexylcarbonyl]-L-tryptophan methylamide] | > 10000 nM | – | – |
| CNC(=O)[C@H](Cc1c[nH]c2ccccc12)NC(=O)[C@@H]1CCCC[C@H]1C(=O)O (mixture of isomers) [Compound 36, N-[(+)trans-2-carboxy-cyclohexylcarbonyl]-L-tryptophan methylamide] | > 10000 nM | – | – |
| CC(C)CC(CC(=O)NO)C(=O)N[C@@H](Cc1c[nH]c2ccccc12)C(=O)NCCO (single isomer, unassigned) [Compound 13A, N-[2-isobutyl-3-(N'-hydroxyamidocarbonyl)-propanoyl]-L-tryptophan 2-hydroxyethylamide] | 20 nM | 1 nM | – |
| COC(=O)CC(CC(C)C)C(=O)N[C@@H](Cc1c[nH]c2ccccc12)C(=O)N[C@@H](C)c1ccccc1 (single isomer, unassigned) [Compound 20A] | – | 0.2 nM | – |
| CC(C)CC(CC(=O)NO)C(=O)N[C@@H](Cc1c[nH]c2ccccc12)C(=O)N1CCCCC1 (stereo partly drawn) [17A,B, N-[2-isobutyl-3-(N'-hydroxyamidocarbonyl)-propanoyl]-L-tryptophan piperidinamide] | 200 nM | – | – |
| CNC(=O)[C@H](Cc1c[nH]c2ccccc12)NC(=O)[C@H](CC(=O)NO)CC(C)C [Compound 5B, N-[D,L-2-isobutyl-3-(N'-hydroxycarbonylamido)-propanoyl]-tryptophan methylamide] | – | – | Ki (Stromelysin): > 1000 nM |
| CCCCCNC(=O)[C@H](Cc1c[nH]c2ccccc12)NC(=O)C(CC(=O)NO)CC(C)C (stereo partly drawn) [Compound 15A, N-[2-isobutyl-3-(N'-hydroxyamidocarbonyl)-propanoyl]-L-tryptophan amylamide] | 30 nM | 0.3 nM | – |
| CC(C)CC(CC(=O)NO)C(=O)N[C@@H](Cc1c[nH]c2ccccc12)C(=O)O (stereo partly drawn) [Compound 31A, N-[2-Isobutyl-3-(N'-hydroxyamidocarbonyl)-propanoyl]-L-tryptophan] | 200 nM | – | – |
| CC(C)C[C@H](CC(=O)O)C(=O)N[C@@H](Cc1c[nH]c2ccccc12)C(=O)N[C@@H](C)c1ccccc1 [Compound 39A, N-(2R-2-Carboxymethyl-4-methylpentanoyl)-L-tryptophan (S)-methylbenzyl amide] | – | – | effect on proteolytic degradation of Azocoll by chronic wound fluid [5]: significantly less potent that 5A, 21A, or S1209; increase in protease activity of chronic wound fluid ([5]; 0.8 μg/ml): 30%; increase in protease activity of chronic wound fluid ([5]; 8 μg/ml): 13%; inhibition of protease activity of chronic wound fluid [5]: 23% |
| CC(C)C[C@H](CC(=O)O)C(=O)N[C@@H](Cc1c[nH]c2ccccc12)C(=O)NCCc1ccccc1 [Compound 58, N-[2-Isobutyl-3-hydroxycarbonylpropanoyl]-L-tryptophan-2(phenyl)ethylamide] | – | – | Ki (Stromelysin): 10600 nM; Ki [2]: 26 nM; Ki [4]: 79 nM |
| CC(C)C[C@H](CC(=O)O)C(=O)N[C@@H](Cc1c[nH]c2ccccc12)C(=O)NCCc1ccc(S(N)(=O)=O)cc1 [Compound 59] | – | – | Ki (Stromelysin): 38200 nM; Ki [2]: 85 nM; Ki [4]: 265 nM |
| CC(=O)OCC(=O)[C@@]12OC(C)(C)O[C@@H]1C[C@H]1[C@@H]3C[C@H](F)C4=CC(=O)C=C[C@]4(C)[C@@]3(F)[C@@H](O)C[C@@]12C [Lidex, fluocinonide, reference compound] | – | – | effect on PdiBu-induced ear thickness [6]: significantly inhibited; effect on PdiBu-induced increase in punch biopsy weight [6]: significantly inhibited |

The next lines start with results.

| Ki [1] | Ki [3] | Structure (SMILES) | also measured |
| --- | --- | --- | --- |
| > 10000 nM | – | CNC(=O)[C@H](Cc1c[nH]c2ccccc12)NC(=O)C1CCCCC1C(=O)NO (mixture of isomers) [29A,B, N-[(±)cis-2-(N'-hydroxyamidocarbonyl)-cyclohexylcarbonyl]-L-tryptophan methylamide] | – |
| 500 nM | 5 nM | CNC(=O)[C@H](Cc1c[nH]c2ccccc12)N(C)C(=O)C(CC(=O)NO)CC(C)C (single isomer, unassigned) [Compound 9A, N-[2-isobutyl-3-(N'-hydroxyamidocarbonyl)-propanoyl]-N-methyl-L-tryptophanmethylamide] | Ki (Stromelysin): > 1000 nM; Ki [2]: 29 nM; Ki [4]: 32 nM |
| 15 nM | 0.3 nM | CNC(=O)[C@H](Cc1ccc2ccccc2c1)NC(=O)C(CC(=O)NO)CC(C)C (single isomer, unassigned) [Compound 11A, N-[2-isobutyl-3-(N-hydroxyamidocarbonyl)-propanoyl]-L-3-(2-naphthyl)-alanine methylamide] | – |
| 3 nM | – | CC(C)CC(CC(=O)NO)C(=O)N[C@@H](Cc1c[nH]c2ccccc12)C(=O)N[C@@H](C)c1ccccc1 (single isomer, unassigned) [Compound 21A] | inhibition of protease activity of chronic wound fluid [5]: 94% |
| > 10000 nM | – | CC(C)CC(CC(=O)O)C(=O)N[C@@H](Cc1c[nH]c2ccccc12)C(=O)NCC(=O)O (single isomer, unassigned) [Compound 34A, N-[N-(2-Isobutyl-3-carboxypropanoyl)-L-tryptophanyl]glycine] | – |
| > 10000 nM | – | CC(C)CC(CC(=O)O)C(=O)N[C@@H](Cc1c[nH]c2ccccc12)C(=O)NCC(=O)O (single isomer, unassigned) [Compound 34B, N-[N-(2-Isobutyl-3-carboxypropanoyl)-L-tryptophanyl]glycine] | – |
| > 10000 nM | – | CC(C)CC(CC(=O)O)C(=O)N[C@@H](Cc1c[nH]c2ccccc12)C(=O)NCCCCCCN (stereo partly drawn) [Compound 32A, N-(D,L-2-Isobutyl-3-carboxypropanoyl)-L-tryptophan (6-aminohexyl-1)amide] | – |
| – | 32 nM | CC(C)C[C@H](CC(=O)O)C(=O)N[C@@H](Cc1c[nH]c2ccccc12)C(=O)NCCN1CCOCC1 [Compound 51] | – |
